Experimental findings from patent US8765773B2, “Substituted hydroxamic acids and uses thereof” (Millennium Pharmaceuticals, Inc., priority 2010, dated 2014) are described below.

In general, inhibition refers to how much of the control response was suppressed.

The target in one experiment is T1, purified human HDAC6 (Homo sapiens, UniProt Q9UBN7).
T1 construct: purchased BPS Bioscience 5006
T1 sequence (Q9UBN7 1-1215): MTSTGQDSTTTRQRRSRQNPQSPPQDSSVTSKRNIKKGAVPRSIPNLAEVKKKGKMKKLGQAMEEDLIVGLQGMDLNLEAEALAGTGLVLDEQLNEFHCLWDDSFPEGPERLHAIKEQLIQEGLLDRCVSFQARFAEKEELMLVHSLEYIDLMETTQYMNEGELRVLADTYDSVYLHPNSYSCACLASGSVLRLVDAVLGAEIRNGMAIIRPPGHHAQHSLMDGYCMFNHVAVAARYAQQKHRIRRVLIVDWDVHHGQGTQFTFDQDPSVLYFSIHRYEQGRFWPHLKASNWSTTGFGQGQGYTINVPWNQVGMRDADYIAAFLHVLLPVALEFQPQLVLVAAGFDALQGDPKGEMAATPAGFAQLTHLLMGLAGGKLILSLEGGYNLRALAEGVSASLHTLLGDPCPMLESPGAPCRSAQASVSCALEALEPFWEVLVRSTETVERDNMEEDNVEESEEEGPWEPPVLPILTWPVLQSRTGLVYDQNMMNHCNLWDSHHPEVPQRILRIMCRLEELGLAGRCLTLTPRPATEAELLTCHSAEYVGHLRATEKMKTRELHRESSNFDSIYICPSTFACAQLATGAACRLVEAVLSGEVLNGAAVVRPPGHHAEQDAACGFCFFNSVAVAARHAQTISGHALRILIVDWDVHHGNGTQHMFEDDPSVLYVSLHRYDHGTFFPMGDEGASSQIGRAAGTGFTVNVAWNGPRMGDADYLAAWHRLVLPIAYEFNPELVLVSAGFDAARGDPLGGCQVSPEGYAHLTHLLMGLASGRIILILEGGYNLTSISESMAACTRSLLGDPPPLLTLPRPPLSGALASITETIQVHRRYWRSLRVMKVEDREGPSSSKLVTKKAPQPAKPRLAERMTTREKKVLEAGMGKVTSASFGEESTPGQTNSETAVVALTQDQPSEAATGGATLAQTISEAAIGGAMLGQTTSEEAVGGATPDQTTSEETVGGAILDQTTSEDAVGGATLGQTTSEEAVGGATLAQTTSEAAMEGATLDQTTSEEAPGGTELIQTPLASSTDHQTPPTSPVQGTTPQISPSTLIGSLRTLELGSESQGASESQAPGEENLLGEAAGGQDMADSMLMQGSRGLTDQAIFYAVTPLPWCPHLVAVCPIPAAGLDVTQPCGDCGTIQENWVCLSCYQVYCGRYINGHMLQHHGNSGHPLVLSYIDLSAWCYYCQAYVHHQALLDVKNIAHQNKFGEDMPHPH
The experiment in a line: HDAC6 Enzyme Assay. The class given is biochemical. The note with it: compound concentration 0.37 μM, read-out: Percent Inhibition. The gist of the method: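 Purified human HDAC6 incubated 1 h at 30° C with Ac-Arg-Gly-Lys(Ac)-AMC peptide plus compound or DMSO; stopped with trichostatin A. Deacetylated product trypsin-digested, released AMC read by fluorescence (Ex 340/Em 460 nm). Percent inhibition at one concentration or IC50 from curves relative to DMSO controls.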
In the case of `O=C(NO)c1ccc2ncn(Cc3cccc(N4CCOCC4)c3)c(=O)c2c1` [Compound I-114, N-hydroxy-3-(3-morpholin-4-ylbenzyl)-4-oxo-3,4-dihydroquinazoline-6-carboxamide], the inhibition at 0.37 µM was 93.8%.

Consider `O=C(NO)c1ccc2ncn(Cc3cccc(-c4ccccc4C(F)(F)F)c3)c(=O)c2c1` [Compound I-124, N-hydroxy-4-oxo-3-{[2′-(trifluoromethyl)biphenyl-3-yl]methyl}-3,4-dihydroquinazoline-6-carboxamide], for which the inhibition at 0.37 µM worked out at 91.4%.

Take `O=C(NO)c1ccc2ncn(CCc3cccc(N4CCOCC4)c3)c(=O)c2c1` [Compound I-125, N-hydroxy-3-[2-(3-morpholin-4-ylphenyl)ethyl]-4-oxo-3,4-dihydroquinazoline-6-carboxamide]: the inhibition at 0.37 µM was 88.2%.

For `O=C(NO)c1ccc2ncn(Cc3cccc(-c4cccc(C(=O)NC5CC5)c4)c3)c(=O)c2c1` [Compound I-126, 3-({3′-[(cyclopropylamino)carbonyl]biphenyl-3-yl}methyl)-N-hydroxy-4-oxo-3,4-dihydroquinazoline-6-carboxamide], the inhibition at 0.37 µM amounted to 95.6%.

Regarding `O=C(NO)c1ccc2c(=O)n(Cc3ccc(C(F)(F)F)cc3)c(-c3cccnc3)nc2c1` [Compound I-133, N-hydroxy-4-oxo-2-pyridin-3-yl-3-[4-(trifluoromethyl)benzyl]-3,4-dihydroquinazoline-7-carboxamide], the inhibition at 0.37 µM worked out at 92.2%.

Turning to `O=C(NO)c1ccc2c(=O)n(Cc3ccc(C(F)(F)F)cc3)c(-c3ccc(Cl)cc3)nc2c1` [Compound I-134, 2-(4-chlorophenyl)-N-hydroxy-4-oxo-3-[4-(trifluoromethyl)benzyl]-3,4-dihydroquinazoline-7-carboxamide], the inhibition at 0.37 µM stood at 88.6%.

For the compound `CS(=O)(=O)c1cccc(Cn2cnc3ccc(C(=O)NO)cc3c2=O)c1` [Compound I-135, N-hydroxy-3-[3-(methylsulfonyl)benzyl]-4-oxo-3,4-dihydroquinazoline-6-carboxamide], the inhibition at 0.37 µM came to 95.3%.

On to `COc1ncccc1-c1cccc(Cn2cnc3ccc(C(=O)NO)cc3c2=O)c1` [Compound I-136, N-hydroxy-3-[3-(2-methoxypyridin-3-yl)benzyl]-4-oxo-3,4-dihydroquinazoline-6-carboxamide], for which the inhibition at 0.37 µM amounted to 94%.

With `O=C(NO)c1ccc2ccn(Cc3cccc(-n4ncc5ccccc54)c3)c(=O)c2c1` [Compound I-137, N-hydroxy-2-[3-(1H-indazol-1-yl)benzyl]-1-oxo-1,2-dihydroisoquinoline-7-carboxamide], the inhibition at 0.37 µM amounted to 99.5%.

As for `Cc1ncc(-c2nc3cc(C(=O)NO)ccc3c(=O)n2Cc2ccc(C(F)(F)F)cc2)n1C` [Compound I-138, 2-(1,2-dimethyl-1H-imidazol-5-yl)-N-hydroxy-4-oxo-3-[4-(trifluoromethyl)benzyl]-3,4-dihydroquinazoline-7-carboxamide], the inhibition at 0.37 µM worked out at 80.2%.

Still in this experiment, the particulars now being: compound concentration 0.412 μM, read-out: Percent Inhibition.
For `O=C(NO)c1ccc2c(=O)[nH]c(COc3cccc(C(F)(F)F)c3)nc2c1` [Compound I-110, N-hydroxy-4-oxo-2-{[3-(trifluoromethyl)phenoxy]methyl}-3,4-dihydroquinazoline-7-carboxamide], the inhibition at 0.412 µM stood at 76%.

For `O=C(NO)c1ccc2ncn(Cc3cccc(F)c3)c(=O)c2c1` [Compound I-111, 3-(3-fluorobenzyl)-N-hydroxy-4-oxo-3,4-dihydroquinazoline-6-carboxamide], the inhibition at 0.412 µM stood at 93.5%.

Consider `CC1(C)CCC(C)(C)c2cc(Cn3cnc4ccc(C(=O)NO)cc4c3=O)ccc21` [Compound I-112, N-hydroxy-4-oxo-3-[(5,5,8,8-tetramethyl-5,6,7,8-tetrahydronaphthalen-2-yl)methyl]-3,4-dihydroquinazoline-6-carboxamide], for which the inhibition at 0.412 µM came to 95.2%.

Turning to `O=C(NO)c1ccc2ccn(CCNc3ccc(Cl)cc3)c(=O)c2c1` [Compound I-113, 2-{2-[(4-chlorophenyl)amino]ethyl}-N-hydroxy-1-oxo-1,2-dihydroisoquinoline-7-carboxamide], the inhibition at 0.412 µM was 95.6%.

As to `O=C(NO)c1ccc2ncn(Cc3ccc(F)cc3)c(=O)c2c1` [Compound I-115, 3-(4-fluorobenzyl)-N-hydroxy-4-oxo-3,4-dihydroquinazoline-6-carboxamide], the inhibition at 0.412 µM is 90.2%.

As for `O=C(NO)c1ccc2ccn(CCCOc3ccc(OCc4ccccc4)cc3)c(=O)c2c1` [Compound I-116, 2-{3-[4-(benzyloxy)phenoxy]propyl}-N-hydroxy-1-oxo-1,2-dihydroisoquinoline-7-carboxamide], the inhibition at 0.412 µM stood at 80.2%.

With `O=C(NO)c1ccc2ccn(C3CCCCCC3)c(=O)c2c1` [Compound I-117, 2-cycloheptyl-N-hydroxy-1-oxo-1,2-dihydroisoquinoline-7-carboxamide], the inhibition at 0.412 µM was 93.3%.

As to `O=C(NO)c1ccc2ccn(CCCc3ccncc3)c(=O)c2c1` [Compound I-118, N-hydroxy-1-oxo-2-(3-pyridin-4-ylpropyl)-1,2-dihydroisoquinoline-7-carboxamide], the inhibition at 0.412 µM stood at 93.3%.

Turning to `O=C(NO)c1ccc2ccn(Cc3cc(F)cc(F)c3)c(=O)c2c1` [Compound I-119, 2-(3,5-difluorobenzyl)-N-hydroxy-1-oxo-1,2-dihydroisoquinoline-7-carboxamide], the inhibition at 0.412 µM was 95.5%.

In the case of `Cc1cccc(Cn2ccc3ccc(C(=O)NO)cc3c2=O)c1` [Compound I-120, N-hydroxy-2-(3-methylbenzyl)-1-oxo-1,2-dihydroisoquinoline-7-carboxamide], the inhibition at 0.412 µM turned out to be 94.8%.

For `CC(C)n1cnc2ccc(C(=O)NO)cc2c1=O` [Compound I-121, N-hydroxy-3-isopropyl-4-oxo-3,4-dihydroquinazoline-6-carboxamide], the inhibition at 0.412 µM is 71.9%.

For `O=C(NO)c1ccc2ccn(Cc3ccccc3F)c(=O)c2c1` [Compound I-122, 2-(2-fluorobenzyl)-N-hydroxy-1-oxo-1,2-dihydroisoquinoline-7-carboxamide], the inhibition at 0.412 µM turned out to be 94.6%.

For the compound `O=C(NO)c1ccc2[nH]c(=O)n(-c3ccccc3)c(=O)c2c1` [Compound I-123, N-hydroxy-2,4-dioxo-3-phenyl-1,2,3,4-tetrahydroquinazoline-6-carboxamide], the inhibition at 0.412 µM was determined as 71.7%.

Regarding `O=C(NO)c1ccc2ncn(Cc3cccc(Cl)c3)c(=O)c2c1` [Compound I-127, 3-(3-chlorobenzyl)-N-hydroxy-4-oxo-3,4-dihydroquinazoline-6-carboxamide], the inhibition at 0.412 µM came to 96.1%.

In the case of `O=C(NO)c1ccc2ncn(Cc3cccc(-c4ccncc4)c3)c(=O)c2c1` [Compound I-128, N-hydroxy-4-oxo-3-(3-pyridin-4-ylbenzyl)-3,4-dihydroquinazoline-6-carboxamide], the inhibition at 0.412 µM came out at 95.9%.

In the case of `O=C(NO)c1ccc2ccn(CCCOc3ccc(-n4ccnc4)cc3)c(=O)c2c1` [Compound I-129, N-hydroxy-2-{3-[4-(1H-imidazol-1-yl)phenoxy]propyl}-1-oxo-1,2-dihydroisoquinoline-7-carboxamide], the inhibition at 0.412 µM is 96.3%.

Turning to `CCC(CC)Cn1ccc2ccc(C(=O)NO)cc2c1=O` [Compound I-130, 2-(2-ethylbutyl)-N-hydroxy-1-oxo-1,2-dihydroisoquinoline-7-carboxamide], the inhibition at 0.412 µM is 93%.

On to `O=C(NO)c1ccc2ccn(CCCc3ccc(Cl)cc3)c(=O)c2c1` [Compound I-131, 2-[3-(4-chlorophenyl)propyl]-N-hydroxy-1-oxo-1,2-dihydroisoquinoline-7-carboxamide], for which the inhibition at 0.412 µM was found to be 96.9%.

Regarding `Cc1nc2cc(C(=O)NO)ccc2c(=O)n1C` [Compound I-132, N-hydroxy-2,3-dimethyl-4-oxo-3,4-dihydroquinazoline-7-carboxamide], the inhibition at 0.412 µM amounted to 59.8%.

As for `Cn1c(NCc2ccc(Cl)cc2)nc2cc(C(=O)NO)ccc2c1=O` [Compound I-139, 2-[(4-chlorobenzyl)amino]-N-hydroxy-3-methyl-4-oxo-3,4-dihydroquinazoline-7-carboxamide], the inhibition at 0.412 µM was 78.5%.
